d = 2'-deoxy (DNA); r = 2'-OH (RNA)

Data set [1] has as its target T1, ACK-1 kinase (GST-ACKD, amino acids 101-441) (Homo sapiens, UniProt Q07912).
T1 construct: made in house; host or cells: Escherichia coli BL21 (pGEX-2TH vector)
Description: In vitro kinase assay of GST-ACKD with MBP as substrate. It is filed as biochemical. Particulars: FIG. 4C dose response, FIG. 4D inhibitors at 200 nmol/L. The procedure: Escherichia coli BL21 cells transformed with pGEX-ACKD were grown at 30° C. to early logarithmic phase and protein expression was induced by adding 0.1 mmol/L isopropyl-L-thio-β-D-galactopyranoside. After 3 hours of incubation, cells were harvested, resuspended in lysis buffer [50 mmol/L Tris (pH 7.5), 0.73 mol/L sucrose, 5 mmol/L MgCl2, 0.5% (v/v) NP40], and disrupted by sonication. Cells were centrifuged at 10,000×g for 30 minutes at 4° C. The supernatant was applied to the glutathione-Sepharose column equilibrated with WED buffer [20 mmol/L Tris (pH 7.5), 2 mmol/L MgCl2, 1 mmol/L DTT] followed by washing with WED buffer. GST-ACKD was eluted with 5 mmol/L glutathione solution in 50 mmol/L Tris (pH 9.6). The eluate was dialyzed in WED buffer overnight and concentrated on a sucrose gradient. The expected size of the fusion protein (GST-ACKD) was confirmed by SDS-PAGE (data not shown), and the protein was used for kinase assays as described below.
The purified GST-ACKD (˜5 μg per reaction) was incubated in kinase reaction buffer [50 mmol/L HEPES-KOH (pH 7.2), 10 mmol/L magnesium acetate, 5 mmol/L DTT] containing 7.5 μg MBP, 100 μmol/L ATP, and 4 μCi [γ-^33P]ATP for 10 minutes at 30° C. Reactions were stopped by addition of 5× Laemmli SDS sample buffer. Proteins were separated by SDS-PAGE, and radioactivity incorporated into the substrate was quantified by using the Kodak Imaging Station 2000R. For kinase inhibition experiments, GST-ACKD was preincubated with individual inhibitors in kinase buffer or kinase buffer alone (control) before the addition of MBP following the same protocol as described above. Experiments were done in triplicate.
Several compounds were screened to examine their potency in inhibiting the kinase activity of ACK in vitro. […]
Different kinase inhibitors were added to the ACK-1 kinase reaction as described above in General Procedures. Phosphorylation of MBP was determined by SDS-PAGE and autoradiography. The level of MBP phosphorylation was determined by scanning MBP bands using Kodak Imaging Station 2000R and plotted as arbitrary units. […]

Data set [2] has as its system v-Ha-Ras-transformed NIH 3T3 cells. Description: Growth of v-Ha-Ras-transformed cells after siRNA transfection (cell counting). Type of data set: cell-based. Particulars: FIG. 2C; counted every 24 hours. The procedure: (§1) A pair of cRNA primers of 21 nucleotides (Dharmacon Research, Inc., Lafayette, Co.) corresponding to the 5′ noncoding of the ACK-1 cDNA (5′-CAUUACCCGCCUAUCUCAUdTdT-3′ and 5′-AUGAGAUAGGCGGGUAAUGdTdT-3′) were annealed to form siRNA (a 19-nucleotide duplex stem with two-nucleotide overhangs on either side) according to the instructions provided by the manufacturer. v-Ha-Ras-transformed or parental NIH 3T3 cells were seeded into 6- or 24-well plates and incubated overnight. The annealed double-stranded ACK siRNA (0.16, 0.4, or 0.8 nmol/L in DMEM) or the sense strand oligonucleotide of ACK siRNA (0.8 nmol/L) was complexed with Cellfectin. siRNA:Cellfectin complexes were added to the serum-free medium and incubated for 3 hours. Cells were then replenished with medium containing 10% FCS and incubated for another 21 hours or as indicated elsewhere. Cells were collected and counted using a hemocytometer; alternatively, cell lysates were prepared for Western blotting. Western blotting was done using ACK-1 antibodies. […]
(§2) After transfection with siRNA at different concentrations (in nmol/L), v-Ha-Ras transformed and parental NIH 3T3 cells were trypsinized and collected every 24 hours. Cell numbers were counted in triplicate.

Data set [3] deals with v-Ha-Ras-transformed cells. Description: Cell cycle analysis of v-Ha-Ras-transformed cells by flow cytometry. It is filed as cell-based. Particulars: data not shown. The procedure:
(§3) v-Ras-transformed cells (1×10^5) were seeded in a 35 mm dish and incubated under standard cell culture conditions overnight. Cells in DMEM were treated with Cellfectin, the sense strand of the siRNA:Cellfectin complex or the siRNA:Cellfectin complex for 3 hours. The medium was then replaced with DMEM containing 10% FCS and incubated for 21 hours at 37° C. Cells were harvested and used for Western blotting with specific antibodies or for cell cycle or caspase activation assays. For cell cycle and caspase activation assays, cells were resuspended in PBS containing FITC-VAD-fmk for 10 minutes at room temperature. The cells were then fixed with ice-cold 70% ethanol for 30 minutes at 4° C. Following a rinse with PBS, the cells were resuspended in PBS containing RNase (0.1 mg/mL) and then stained with propidium iodine (10 μg/mL) for 10 minutes at room temperature. Cellular fluorescence from a sample of 15,000 cells was analyzed using a Coulter EPICS Profile II Flow Cytometer (Coulter Electronics, Miami, Fla.). Fluorescence excited at 488 nm was detected using a 525±20 band pass filter. Histograms were analyzed using EPICS Workstation Software (version 4).
Background: Flow cytometry measures light scatter and fluorescence of single cells or particles in a stream.

Data set [4] concerns v-Ha-Ras-transformed NIH 3T3 cells. Description: Induction of apoptosis in v-Ha-Ras-transformed cells (PARP and ICAD cleavage, cytochrome c release, DNA fragmentation). Type of data set: cell-based. Particulars: PARP cleavage, ICAD cleavage, chromosomal DNA fragmentation, FIGS. 3A-D. As to the method:
as §3
v-Ras-transformed cells (5×10^5) were seeded in 35 mm dishes and incubated overnight under standard cell culture conditions. […]

The subject of another data set is parental NIH 3T3 cells. Description: Growth of parental NIH 3T3 cells after siRNA transfection (cell counting). Type of data set: cell-based. Particulars: FIG. 2D; counted every 24 hours. The procedure: as §1, §2
Another data set deals with ACK-1. Description: ACK-1 protein level after siRNA transfection (Western blot). Type of data set: cell-based. As to the method: as §1
After 24 hours of transfection, cells were collected and lysed with Laemmli SDS sample buffer. Proteins were separated by SDS-PAGE and the level of ACK-1 protein was determined by Western blotting using antibodies against ACK-1. […]

T1 sequence (Q07912 38-378 H250G): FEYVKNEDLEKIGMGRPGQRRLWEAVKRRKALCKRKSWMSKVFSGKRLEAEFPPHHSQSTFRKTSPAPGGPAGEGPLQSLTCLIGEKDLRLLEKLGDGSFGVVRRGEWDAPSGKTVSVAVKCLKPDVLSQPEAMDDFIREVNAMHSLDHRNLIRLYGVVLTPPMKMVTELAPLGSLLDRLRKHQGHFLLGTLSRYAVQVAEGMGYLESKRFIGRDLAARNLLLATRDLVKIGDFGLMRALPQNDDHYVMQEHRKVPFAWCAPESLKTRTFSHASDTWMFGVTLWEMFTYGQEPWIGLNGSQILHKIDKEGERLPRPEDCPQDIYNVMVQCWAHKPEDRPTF

Regarding `O=c1c(-c2ccc(O)cc2)coc2cc(O)cc(O)c12` [genistein], the “inhibition of kinase activity of ACK (MBP phosphorylation)” value in data set [1] was “very weak activity”.

In the case of `O=c1c(O)c(-c2ccc(O)c(O)c2)oc2cc(O)cc(O)c12` [quercetin], the “inhibition of kinase activity of ACK (MBP phosphorylation)” value in data set [1] was “very weak activity”.

As for “ACK-1 siRNA: annealed 21-nt pair 5′-CAUUACCCGCCUAUCUCAUdTdT-3′ / 5′-AUGAGAUAGGCGGGUAAUGdTdT-3′ corresponding to the 5′ noncoding of ACK-1 cDNA (chain 1 CAUUACCCGCCUAUCUCAUTT; chain 2 AUGAGAUAGGCGGGUAAUGTT; sugars from the 5' end r19 d2, backbone not given here)”, the “growth of v-Ha-Ras-transformed cells after transfection” value in data set [2] was “inhibited the growth of v-Ha-Ras-transformed cells in a dose dependent manner”. In addition, the cell cycle arrest result in data set [3] is given as “did not block v-Ha-Ras-transformed cells at any particular stage of the cell cycle”. Further, the “induction of apoptosis (apoptosis markers)” value in data set [4] is recorded as “induced apoptosis”. Also, the “growth of parental NIH 3T3 cells after transfection” value with parental NIH 3T3 cells is recorded as “did not affect the growth of parental NIH 3T3 cells”. The “level of ACK-1 at 0.8 nmol/L siRNA” value in the data set on ACK-1 (0.8 nmol/L, v-Ha-Ras-transformed and parental NIH 3T3 cells) is listed as “reduced the level of ACK-1 significantly”. In the data set on ACK-1 (siRNA 0.16, 0.4 or 0.8 nmol/L, 24 hours, FIGS. 2A and B), the “expression of ACK-1” value was “reduced the expression of ACK-1 in a dose-dependent manner”.

These data come from patent publication US20090118310A1, “Activated Cdc42-associated kinase (ACK) as a therapeutic target for Ras-induced cancer” (UNIVERSITY OF MEDICINE AND DENTISTRY OF NEW JERSEY, priority 2005, published 2009).
